Experimental data as given in US20060135612A1, “Method of ameliorating or abrogating the effects of a neurodegenerative disorder, such as amyotrophic lateral sclerosis (ALS), by using a HDAC inhibiting agent” (U.S. Department of Veterans Affairs, priority 2004, published 2006).
Where two headings read alike, the source gives them in different places.

Key:
G93A transgenic ALS mice = settings: for Survival (Days ± SD) / Percentile change (survival extension): G93A mice; for Percentile change (survival extension): vs 0 mg/kg/d
Procedure: We have standardized criteria to ensure homogeneity of the cohorts within the testing groups. Mice were randomized from 24 litters all within 4 days from the same ‘f’ generation. Body weights were taken at 20 days and mice were equally distributed according to weight within each experimental cohort. Mice under 8 g at 20 days were excluded from the experiments.
Intraperitoneal Dosing: Based upon previous studies (Reference 29), a dose response study was performed, treating groups (n=20) of wild type and G93A mice with 200, 600, 1,200, 2,000 and 5,000 mg/kg by daily intraperitoneal injection (100 μl) of sodium butyrate (Acros Organics/Fisher Scientific, Fairlawn, N.J.) dissolved in PBS and made fresh daily. Additional groups of mice were treated in the same manner with 100, 200, 400, 600, and 800 mg/kg of phenylbutyrate (Triple Crown America, Inc. Perkasie, Pa.). Control groups of G93A mice were treated with PBS injection (vehicle). Approximately 260 mice were used for behavioral and survival analyses.
Motor performance and ability to feed was closely monitored and used as the basis for determining when to euthanize the mice. The criterion for euthanization was the point in time the ALS mice were unable to right themselves after being placed on their back for 30 seconds. Some deaths occurred overnight and were recorded the following morning.

G93A mice [1] = settings: at 120 days, PBS-treated 4,680.6±847.4, WT 11,580.9±221.2
G93A mice [2] = settings: 120 days; for reactive astrogliosis (GFAP immunostaining): G93A mice spinal cord sections; for gross spinal cord atrophy: G93A mice
G93A mice [3] = test: Motor performance on rotarod; type: in vivo; settings: most efficacious doses, after 13 wks through endstage disease
Body weight = type: in vivo; settings: G93A mice, beginning after 100 days
ALS mice = settings: References 10 and 11; cited from earlier work
humans with ALS = settings: cited from earlier work
G93A mice [4] = settings: at 17 weeks, vs untreated G93A mice
Procedure: Clinical Assessment: Both motor performance and body weight were measured throughout the study. Training sessions were given on days 21 and 22 to acclimate the mice to the rotarod apparatus (Columbus Instruments, Columbus, Ohio). Motor performance (constant rotation at 16 rpm) was assessed weekly from 23-100 days of age and twice weekly from 101 days of age. Three 60 sec trials were given during each session and averaged. Body weights were recorded twice weekly at the same time of day. Gait analysis was performed measuring stride length (Reference 49).

activated caspase 9 = settings: G93A mice, 120 days, vs untreated
Procedure: (§1) Western Blotting: Tissue lysates and subcellular fractions were prepared using an ice-cold cell extraction buffer containing 50 mM Tris-HCl, pH 7.4, 150 mM NaCl, 2 mM EDTA, 1% Triton X-100, 1 mM phenylmethylsulfonyl fluoride (PMSF), 10 mg/ml leupeptin, 1 μM pepstatin, 1 mM N-ethylmleimide (NEM), 2 mM Na3VO4, 20 mM sodium pyrophosphate, and 50 mM NaF). Lysates were centrifuged at 15,000 rpm at 4° C. for 30 min. Then the protein concentration was quantified and samples were boiled for 10 min with Laemmli buffer (15 is 100 mM Tris-HCL, pH 6.8, 4% SDS, 200 mM dithiothreitol, 20% glycerol, 2% SDS, 0.2% bromophenol blue, 10 μg/ml aprotinin, 10 μg/ml leupeptin) at 100° C. In general, 30 μg of proteins were electrophoresed on 10% SDS-polyacrylamide gel and transferred to nitrocellulose membrane. Membranes were blocked in 5% skim milk in TBST (Tris, pH 7.4; 150 mM NaCl; 0.05% Tween 20) for 30 min at room temperature. Blots were probed with primary antibodies overnight at 4 ° C. […] HRP-conjugated secondary IgG anti-Rabbit IgG and anti-mouse IgG (Bio-Rad Laboratories, Inc., Hercules, Calif.) were used at 1:5000 and 1:3000, respectively. HL-60 Cell lysates were used as positive controls (Upstate Biotechnology, Lake Placid, N.Y.).

activated caspase 3 = settings: G93A mice, 120 days, vs untreated
Procedure: as §1

NF-κB p50 [5] = settings: G93A mice, vs WT and vehicle-treated
Procedure: as §1

bcl-2 [6] = settings: G93A mice, vs vehicle-treated
Procedure: as §1

cytochrome c = settings: G93A spinal cord, 120 days, vs PBS-treated
Procedure: as §1

plκB [7] = settings: G93A mice
Procedure: as §1

bcl-2 promoter = bcl-2 promoter activity assay in transfected N2a cells; type: cell-based
Procedure: Promoter Activity Assay: […] Vincent Bours (University of Liege, Belgium) (Reference 41). The bcl-2 Luc-reporter plasmids containing the fragment from -3934 to -8 from the bcl-2 promoter was also generous gift from Dr. L. Boxer (Stanford University, California). […] All promoter assays were performed in duplicates. Enzyme activities were normalized to the protein concentration of the extracts.

NF-κB p50 [8] = settings: N2a cells, 1 mM for three hours
Procedure: (§2) Immunofluorescence Staining and Microscopy: Indirect labeling methods were used to determine plκB and NF-κB p50 in N2aCells. […] The cells were washed with warm PBS and fixed at room temperature for 15 min with 4% paraformaldehyde (PFA). After washing with PBS, fixed cells were incubated with blocking solution containing 0.3% Triton X-100, 5% bovine serum albumin, and 3% goat serum for 1 hr, followed by incubation with primary antibodies overnight at 4° C. After three washes with PBS, the cells were incubated for 1 hr with FITC-conjugated (1:200 dilution) and Cy3-conjugated secondary antibody (1:200 dilution; Vector Laboratories, Burlingame, Calif.). The slides were washed three times with PBS and mounted with fluorochrome mounting solution. Images were analyzed using a fluorescence microscope. Control experiments were performed in the absence of primary antibody.

plκB [9] = settings: N2a cells, 1 mM for three hours
Procedure: as §2

bcl-2 [10] = settings: spinal cord tissue cultures, 1 mM, time-dependent
Procedure: (§3) Freshly isolated spinal cords from wild type and G93A mice were minced and incubated with neurobasal medium for 12 hr. […] After incubation, the tissues were harvested and equally divided for Western blot analysis and RT-PCR.
as §1, with “HL-60 Cell lysates were used as positive controls (Upstate Biotechnology, Lake Placid, N.Y.).” left out

plκB [11] = settings: spinal cord tissue cultures, 1 mM, time-dependent
Procedure: as §3
as §1, with “HL-60 Cell lysates were used as positive controls (Upstate Biotechnology, Lake Placid, N.Y.).” left out

acetylated NF-κB p50 = settings: 1 mM
Procedure: as §3
Detection of Acetylated NF-κB p50: For detection of the levels of acetylated NF-κB p50, 200 μg of nuclear extracts were diluted to a total volume of 500 microliter in lysis buffer (100 mM Tris buffer, pH7.4, containing 1% Triton X-100, 150 mM NaCl, 1 mM sodium orthovanadate, 5 mM sodium fluoride, 3 mM PMSF, 3 mM DTT, 0.5 mg/m leupeptin, and 10 mg/ml aprotinin) and incubated with 7 μl of goat anti-p50 antibody (Santa Cruz, Santa Cruz, Calif.) by shaking overnight at 4° C. Thirty-two μl of protein A-sepharose (50% v/v slurry) was added to lysates and left for 1 hr at 4° C. Beads were collected by centrifugation and washed twice with lysis buffer, once in PBS and finally resuspended with 40 μl of 2×SDS loading buffer. Samples were boiled and a 20 μl aliquot was separated in a 10% SDS-PAGE. After transferring the proteins to a nitrocellulose membrane acetylated p50 proteins were detected in Western blot analysis using an acetyl lysine-specific antibody (AbCam, Cambridge, Mass. at 1:1000).

bcl-2 mRNA = settings: spinal cord tissue cultures, ex vivo administration
Procedure: as §3

[12] = tested on: histone 3 and histone 4 acetylation; settings: treated WT and G93A mice
WT and WT-SOD1 N2a cells = settings: MTT
Procedure: (§4) N2a Cell Culture: N2a monolayer cell cultures were grown in 50% DMEM and 50% OPTI-MEM with 5% fetal bovine serum (FBS), 1% antibiotic antimycotic, and 400 microgram/ml of the neomycin analog G418. Differentiation was induced within 3 days in serum-free medium. The SOD1 mutation (G41D) was introduced into a plasmid clone of human genomic SOD1 (pHGSOD-SVneo). Stably transfected lines of N2a cells were selected with the drug G418, after transfection with SOD1 pHGSOD-SVneo plasmids. Differentiated cells were incubated without FBS for 6 days before treatments. […] Cell viability was measured by MTT assay.

[13] = tested on: N2a mutant SOD (G41D) cells; settings: 1 mM, 12 hr pretreatment, X/XO 6 hr, MTT, vs untreated cells
Procedure: as §4

Question: Which “time to death (mice became moribund and died)” value (mice; 2 g/kg/d i.p.) does the source give for `CCCC(=O)[O-].[Na+]` [NAB, sodium butyrate] here?
Answer: 1 to 9 days

Question: And the “time to sudden death” value (mice; 4 g/kg/d i.p.)?
Answer: 0.5 to 1.0 h

Question: And the “Survival (Days ± SD)” value (G93A transgenic ALS mice; 200 mg/kg/d i.p.)?
Answer: 129.2 ± 4.5 days

Question: What about the “Survival (Days ± SD)” value (G93A transgenic ALS mice; 600 mg/kg/d i.p.) of the same compound?
Answer: 141.8 ± 5.9 days

Question: And the “Percentile change (survival extension)” value (G93A transgenic ALS mice; 600 mg/kg/d i.p.)?
Answer: 12.5%

Question: What about the “Survival (Days ± SD)” value (G93A transgenic ALS mice; 1200 mg/kg/d i.p.) of the same compound?
Answer: 151.3 ± 6.8 days

Question: And the “Percentile change (survival extension)” value (G93A transgenic ALS mice; 1200 mg/kg/d i.p.)?
Answer: 20%

Question: What about the “estimated number of ventral horn neurons, lumbar cord” value (G93A mice [1]; 1.2 g/kg/d i.p. from 21 days) of the same compound?
Answer: 9,604.4±346.2

Question: And the “reactive astrogliosis (GFAP immunostaining)” value (G93A mice [2])?
Answer: reduced

Question: What about the “gross spinal cord atrophy” value (G93A mice [2]; 1.2 g/kg/d) of the same compound?
Answer: ameliorated

Question: What about the “motor performance (rotarod)” value (G93A mice [3]) of the same compound?
Answer: significantly improved

Question: And the body weight loss (Body weight)?
Answer: significantly reduced

Question: For `[O-][n+]1cccc(/C(Cl)=N/OC[C@H](O)CN2CCCCC2)c1` [arimoclomal], which survival extension (ALS mice) is on record?
Answer: 22%

Question: With `Nc1nc2ccc(OC(F)(F)F)cc2s1` [riluzole] as the compound, how does the extension of life (humans with ALS) read?
Answer: 10-15%

Question: Which stride length (G93A mice [4]) does the source give for sodium phenylbutyrate [PBA] here?
Answer: markedly improved

Question: What about the “activated caspase 9 (Western blot)” value (activated caspase 9) of the same compound?
Answer: significantly reduces

Question: And the “activated caspase 3 (Western blot)” value (activated caspase 3)?
Answer: significantly reduces

Question: What about the “expression of NF-κBp50” value (NF-κB p50 [5]) of the same compound?
Answer: Marked increased expression

Question: And the “Bcl-2 expression in spinal cord sections” value (bcl-2 [6])?
Answer: restored to WT levels

Question: What about the “release of cytochrome c into the cytosol of neurons” value (cytochrome c) of the same compound?
Answer: dramatic reduction

Question: And the “phosphorylation of lκB in the ventral horn” value (plκB [7])?
Answer: increased

Question: What about the morbidity and mortality (mice; 600 mg/kg/d i.p.) of the same compound?
Answer: morbidity and mortality

Question: And the morbidity and mortality (mice; 800 mg/kg/d i.p.)?
Answer: morbidity and mortality

Question: What about the “increase of bcl-2 promotor activity” value (bcl-2 promoter; N2a cells transfected with bcl-2 reporter plasmids) of the same compound?
Answer: 90%

Question: What about the “induction of bcl-2 promotor activity” value (bcl-2 promoter; N2a cells transfected with bcl-2 reporter plasmids, after 24 h of incubation) of the same compound?
Answer: approximately 2 fold

Question: What about the “transactivation of wild type κB site bcl-2 promotor” value (bcl-2 promoter; N2a cells, transfection assay) of the same compound?
Answer: transactivates

Question: And the “Survival (Days ± SD)” value (G93A transgenic ALS mice; 200 mg/kg/d i.p.)?
Answer: 136.5 ± 5.5 days

Question: And the “Percentile change (survival extension)” value (G93A transgenic ALS mice; 200 mg/kg/d i.p.)?
Answer: 8.6%

Question: What about the “Survival (Days ± SD)” value (G93A transgenic ALS mice; 400 mg/kg/d i.p.) of the same compound?
Answer: 153.2 ± 6.4 days

Question: What about the “Percentile change (survival extension)” value (G93A transgenic ALS mice; 400 mg/kg/d i.p.) of the same compound?
Answer: 21.9%

Question: And the survival benefit (G93A transgenic ALS mice; transgenic SOD1 mice, this study, dose not stated)?
Answer: 22%

Question: And the “estimated number of ventral horn neurons, lumbar cord” value (G93A mice [1]; 400 mg/kg/d i.p. from 21 days)?
Answer: 10,378.4±304.4

Question: And the “nuclear translocation of NF-κB p50 immunofluorescence” value (NF-κB p50 [8])?
Answer: increased

Question: What about the “cytosolic plκB immunofluorescence” value (plκB [9]) of the same compound?
Answer: increased

Question: What about the bcl-2 protein (bcl-2 [10]) of the same compound?
Answer: increased

Question: And the plκB protein (plκB [11])?
Answer: increased

Question: And the “reactive astrogliosis (GFAP immunostaining)” value (G93A mice [2])?
Answer: reduced

Question: And the “gross spinal cord atrophy” value (G93A mice [2]; 400 mg/kg/d)?
Answer: ameliorated

Question: And the “time of induced NF-κBp50 acetylation” value (acetylated NF-κB p50; spinal cord tissue cultures from G93A mice)?
Answer: 3 to 6 h

Question: What about the “time of induced NF-κBp50 acetylation” value (acetylated NF-κB p50; spinal cord tissue cultures from WT mice) of the same compound?
Answer: 6 to 24 h

Question: What about the “mRNA upregulation of bcl-2” value (bcl-2 mRNA) of the same compound?
Answer: induced at 3 hours and sustained until 12 hours

Question: And the “histone 3 and histone 4 acetylation (Western blot)” value [12]?
Answer: markedly increased

Question: What about the “protection against X/XO-induced cell death” value (WT and WT-SOD1 N2a cells) of the same compound?
Answer: protects

Question: And the “improvement of cell viability” value [13]?
Answer: 34.7%

Question: And the “motor performance (rotarod)” value (G93A mice [3])?
Answer: significantly improved

Question: What about the body weight loss (Body weight) of the same compound?
Answer: significantly reduced

Question: With `COc1cc(/C=C/C(=O)CC(=O)/C=C/c2ccc(O)c(OC)c2)ccc1O` [Curcumin] as the compound, how does the “effect on PBA-induced bcl-2 promoter activity” value (bcl-2 promoter; N2a cells, with PBA) read?
Answer: dose-dependently blocked
